Values after ≈ are worked out from the molar mass of the structure shown. Active and inactive are the calls of the source. No cut-off for these calls is given here.
Legend:
Staphylococcus aureus [1] = test: Antibacterial activity against Staphylococcus aureus ATCC 25923 assessed as growth inhibition at 50 mg/mL after 24 hr by agar well diffusion method; conditions: for zone of inhibition at 50000 µg/mL: ATCC 25923, 24 h, read-out: IZ
Pseudomonas aeruginosa [2] = test: Antibacterial activity against Pseudomonas aeruginosa ATCC 27853 assessed as growth inhibition after 24 hr by serial broth dilution method; type: functional
Aspergillus flavus [3] = test: Antifungal activity against Aspergillus flavus assessed as growth inhibition at 50 mg/mL after 72 hr by agar well diffusion method; type: functional; conditions: for zone of inhibition at 50000 µg/mL: read-out: IZ
Escherichia coli [4] = test: Antibacterial activity against Escherichia coli ATCC 25922 assessed as growth inhibition at 50 mg/mL after 24 hr by agar well diffusion method; conditions: for zone of inhibition at 50000 µg/mL: ATCC 25922, 24 h, read-out: IZ
[5] = test system: Chrysosporium keratinophilum; test: Antifungal activity against Chrysosporium keratinophilum assessed as growth inhibition at 50 mg/mL after 72 hr by agar well diffusion method; type: functional; conditions: for zone of inhibition at 50000 µg/mL: read-out: IZ
Candida albicans [6] = test: Antifungal activity against Candida albicans MTCC227 assessed as growth inhibition at 50 mg/mL after 72 hr by agar well diffusion method; conditions: for zone of inhibition at 50000 µg/mL: MTCC227, 72 h, read-out: IZ
Pseudomonas aeruginosa [7] = test: Antibacterial activity against Pseudomonas aeruginosa ATCC 27853 assessed as growth inhibition at 50 mg/mL after 24 hr by agar well diffusion method; type: functional; conditions: for zone of inhibition at 50000 µg/mL: ATCC 27853, 24 h, read-out: IZ
Escherichia coli [8] = test: Antibacterial activity against Escherichia coli ATCC 25922 assessed as growth inhibition after 24 hr by serial broth dilution method
[9] = test system: Chrysosporium keratinophilum; test: Antifungal activity against Chrysosporium keratinophilum assessed as growth inhibition after 72 hr by serial broth dilution method; type: functional
Candida albicans [10] = test: Antifungal activity against Candida albicans MTCC227 assessed as growth inhibition after 72 hr by serial broth dilution method
Aspergillus flavus [11] = test: Antifungal activity against Aspergillus flavus assessed as growth inhibition after 72 hr by serial broth dilution method; type: functional
[12] = test system: Radical scavenging activity; test: Antioxidant activity assessed as DPPH free radical scavenging activity at 100 ug/mL after 10 min UV-Vis spectrophotometric analysis relative to control; type: functional
Staphylococcus aureus [13] = test: Antibacterial activity against Staphylococcus aureus ATCC 25923 assessed as growth inhibition after 24 hr by serial broth dilution method

SMILES | MIC (Pseudomonas aeruginosa [2]; ATCC 27853, 24 h) | MIC (Escherichia coli [8]; ATCC 25922, 24 h) | MIC [9] | MIC (Candida albicans [10]; MTCC227, 72 h) | MIC (Aspergillus flavus [11]) | MIC (Staphylococcus aureus [13]; ATCC 25923, 24 h) | zone of inhibition at 50000 µg/mL (Staphylococcus aureus [1]) | zone of inhibition at 50000 µg/mL (Aspergillus flavus [3]) | zone of inhibition at 50000 µg/mL (Escherichia coli [4]) | zone of inhibition at 50000 µg/mL [5] | zone of inhibition at 50000 µg/mL (Candida albicans [6]) | zone of inhibition at 50000 µg/mL (Pseudomonas aeruginosa [7]) | Activity [12] | also measured
O=C(CC(Nc1ccccc1)c1ccccc1)c1cc2ccccc2oc1=O (stereo not given) | 350 µg/mL (≈ 947 µM) | 500 µg/mL (≈ 1350 µM) | 550 µg/mL (≈ 1490 µM) | 300 µg/mL (≈ 812 µM) | 450 µg/mL (≈ 1220 µM) | 500 µg/mL (≈ 1350 µM) | 5 mm | 4 mm | 4 mm | 3 mm | 7 mm | 1 mm | 25.3% | 
O=C(CC(Nc1ccccc1)c1ccccc1)c1cc2ccccc2o1 (stereo not given) | 500 µg/mL (≈ 1460 µM) | 500 µg/mL (≈ 1460 µM) | 500 µg/mL (≈ 1460 µM) | 500 µg/mL (≈ 1460 µM) | 500 µg/mL (≈ 1460 µM) | 500 µg/mL (≈ 1460 µM) | 1 mm | 2 mm | 1 mm | 1 mm | 2 mm | 1 mm | 28.7% | 
Cc1ccc(C(CC(=O)c2cc3ccccc3o2)Nc2ccc(C(=O)O)cc2)cc1 (stereo not given) |  |  | inactive |  | inactive |  |  |  |  |  |  |  | 54.1% | growth inhibition (GI) (Staphylococcus aureus [1]): inactive; MIC (Pseudomonas aeruginosa [2]): inactive; growth inhibition (GI) (Aspergillus flavus [3]): inactive; growth inhibition (GI) (Escherichia coli [4]): inactive; growth inhibition (GI) [5]: inactive; growth inhibition (GI) (Candida albicans [6]): inactive; growth inhibition (GI) (Pseudomonas aeruginosa [7]): inactive; MIC (Escherichia coli [8]): inactive; MIC (Candida albicans [10]): inactive; MIC (Staphylococcus aureus [13]): inactive
Cc1cc(C(C)(C)C)c(O)c(C(C)(C)C)c1 |  |  |  |  |  |  |  |  |  |  |  |  | 90% | 

Now from value to compound, other results behind:

MIC (Pseudomonas aeruginosa [2]; ATCC 27853, 24 h) | MIC (Escherichia coli [8]; ATCC 25922, 24 h) | MIC [9] | MIC (Candida albicans [10]; MTCC227, 72 h) | MIC (Aspergillus flavus [11]) | MIC (Staphylococcus aureus [13]; ATCC 25923, 24 h) | SMILES | zone of inhibition at 50000 µg/mL (Staphylococcus aureus [1]) | zone of inhibition at 50000 µg/mL (Aspergillus flavus [3]) | zone of inhibition at 50000 µg/mL (Escherichia coli [4]) | zone of inhibition at 50000 µg/mL [5] | zone of inhibition at 50000 µg/mL (Candida albicans [6]) | zone of inhibition at 50000 µg/mL (Pseudomonas aeruginosa [7]) | Activity [12] | also measured
100 µg/mL (≈ 232 µM) | 100 µg/mL (≈ 232 µM) | 200 µg/mL (≈ 464 µM) | 100 µg/mL (≈ 232 µM) | 230 µg/mL (≈ 533 µM) | 120 µg/mL (≈ 278 µM) | O=C(O)c1ccc(NC(CC(=O)c2cc3ccccc3oc2=O)c2ccc(F)cc2)cc1 (stereo not given) | 10 mm | 10 mm | 12 mm | 12 mm | 18 mm | 12 mm | 35.2% | 
 |  | inactive |  | inactive |  | COc1ccc(C(CC(=O)c2cc3ccccc3oc2=O)Nc2ccc(C(=O)O)cc2)cc1 (stereo not given) |  |  |  |  |  |  | 18.1% | growth inhibition (GI) (Staphylococcus aureus [1]): inactive; MIC (Pseudomonas aeruginosa [2]): inactive; growth inhibition (GI) (Aspergillus flavus [3]): inactive; growth inhibition (GI) (Escherichia coli [4]): inactive; growth inhibition (GI) [5]: inactive; growth inhibition (GI) (Candida albicans [6]): inactive; growth inhibition (GI) (Pseudomonas aeruginosa [7]): inactive; MIC (Escherichia coli [8]): inactive; MIC (Candida albicans [10]): inactive; MIC (Staphylococcus aureus [13]): inactive
40 µg/mL (≈ 89.3 µM) | 50 µg/mL (≈ 112 µM) | 40 µg/mL (≈ 89.3 µM) | 50 µg/mL (≈ 112 µM) | 40 µg/mL (≈ 89.3 µM) | 50 µg/mL (≈ 112 µM) | O=C(O)c1ccc(NC(CC(=O)c2cc3ccccc3oc2=O)c2ccc(Cl)cc2)cc1 (stereo not given) | 11 mm | 11 mm | 13 mm | 15 mm | 19 mm | 13 mm | 34.7% | 
430 µg/mL (≈ 938 µM) | 500 µg/mL (≈ 1090 µM) | 350 µg/mL (≈ 763 µM) | 500 µg/mL (≈ 1090 µM) | 250 µg/mL (≈ 545 µM) | 500 µg/mL (≈ 1090 µM) | O=C(O)c1ccc(NC(CC(=O)c2cc3ccccc3oc2=O)c2ccc([N+](=O)[O-])cc2)cc1 (stereo not given) | 3 mm | 5 mm | 3 mm | 6 mm | 4 mm | 6 mm | 15.3% | 
140 µg/mL (≈ 333 µM) | 120 µg/mL (≈ 286 µM) | 40 µg/mL (≈ 95.3 µM) | 50 µg/mL (≈ 119 µM) | 40 µg/mL (≈ 95.3 µM) | 130 µg/mL (≈ 310 µM) | O=C(O)c1ccc(NC(CC(=O)c2cc3ccccc3o2)c2ccc(Cl)cc2)cc1 (stereo not given) | 8 mm | 7 mm | 9 mm | 13 mm | 17 mm | 7 mm | 31.2% | 

From ChEMBL document CHEMBL3045073, “Synthesis of -amino carbonyl derivatives of coumarin and benzofuran and evaluation of their biological activity” (Med Chem Res, 2013)
